The values that follow are results of earlier work, collected in US5569647A, “Angiopeptin cyclopeptide compounds” (Adir et Compagnie, priority 1993, dated 1996).

The test system of this data set is cells of the vascular smooth muscle. To be noted: rat carotid artery, desiccation of the endothelium in air.

angiopeptin: the “anti-proliferative effect in vivo on cells of the vascular smooth muscle” value was “anti-proliferative effect in vivo”.
